Tests used:
[1] = Separate single dose oral study: half-life in humans; conditions: human, in vivo; single dose oral administration
Source text: (§1) The mean t1/2z for Compound (I) reflects the prolonged half-life of Compound (I) in humans. […] In that study, the mean human half-life of Compound (I) (approximately 11 days) was substantially higher than the 2-4 hr mean half-life observed in rats and dogs.

[2] = Separate single dose oral study: half-life in dogs; conditions: dog, in vivo; single dose oral administration of 5-15 mg/kg
Source text: as §1

[3] = Brief Assessment of Cognition in Schizophrenia (BACS) composite score; assay type: in vivo, human
Description: On Day 1 of each treatment period, following study drug administration, and commencing at approximately 2 h post-dose, subjects underwent PD tests for a total of approximately 4 h. Blood samples were collected at defined times after dosing to assess the PK of Compound (I). After the last PK collection at 6 h post-dose, subjects left the clinic. On Day 14 of each Treatment Period, subjects took the second set of PD tests along with a single time point PK collection. Samples for PK were also collected on Day 49 and at the final visit of the second treatment period. PD testing were performed in 3 blocks, separated by 2 breaks. The first block comprised the Grip Effort Task, the Progressive Ratio Test, and the Brief Assessment of Cognition in Schizophrenia (BACS). The BACS is a reliable and sensitive test battery specifically designed to efficiently assesses important cognitive deficits in patients with schizophrenia; accordingly, the BACS is suited for repeated testing in a clinical trial setting (Keefe et al., 2004). […] The following domains of cognitive function found to be consistently impaired in schizophrenia were assessed in this study: verbal memory; working memory; motor function; attention and processing speed; verbal fluency; and executive function. A composite score was calculated from each of the subset scores and used as a single endpoint for the assessment.
The BACS consisted of items across 6 subtests: Verbal Memory, Digit Sequencing, Token Motor, Verbal Fluency, Symbol Coding, and Tower of London.
The observed BOLD signal was summarized (N, mean, median, SD, minimum, and maximum) by treatment (Compound (I) (overall and by dose) and placebo) and time. The BACS composite score was summarized for baseline, post-dose, and change from baseline by treatment, dose, and time.
Each of the primary PD measures was analyzed using a Bayesian normal linear model with effects for sequence, period, treatment, time (as a categorical variable), the treatment-by-time interaction, subject within treatment sequence, and baseline (for BACS only). For the BOLD fMRI, the observed value was the response variable in the model. For the BACS, the observed and the change from baseline were modeled separately. Missing values were not imputed and were not included in the model under a missing at random assumption. A diffuse normal distribution with mean zero and variance 106 was used as a prior for the regression coefficients and a diffuse inverse gamma with shape and scale parameters of 0.01 for the residual variance. […]

[4] = tested on: cerebral blood flow; test: Average global cerebral blood flow (pCASL MRI); assay type: in vivo, human
Source text: Whole brain maps of regional cerebral blood flow (CBF) were obtained using an ASL methodology previously reported (Hawkins et al., 2018; Dai et al., 2008). Briefly, images were acquired using a pseudo-continuous Arterial Spin Labelling sequence (pCASL) with a multi-shot, segmented 3D stack of axial spirals (8-arms) readout with a resultant spatial resolution of 2×2×3 mm. Three control-label pairs were used to derive a perfusion weighted difference image. The labelling RF pulse had duration of 1.5 s and a post-labelling delay of 1.5 s. The sequence included background suppression for optimum reduction of the static tissue signal. A Proton Density image was acquired in 48 s using the same acquisition parameters to compute the CBF map in standard physiological units (mL blood/100 g tissue/min). Two runs were acquired per visit and averaged following preprocessing.
The T2-weighted image was co-registered to the T1-weighted image prior to creation of the DARTEL template, and each session's Proton Density image was then co-registered to the T2-weighted image. The parameters for this transformation were then applied to the CBF maps, and the DARTEL flow field applied to normalize to CBF maps to MNI space, before smoothing with a 6 mm FWHM kernel.
Average global cerebral blood flow (CBF) was extracting using an SPM MNI whole brain mask in MarsBar, and was analyzed at each time point with a mixed two-way ANOVA (treatment (placebo/drug) within subject factor, dose level (40 mg/160 mg) between-subject factor) (FIG. 4).

C[C@H](NC(=O)Cn1nnc2ccccc2c1=O)c1ccc(OC(F)(F)F)cc1 [Compound (I), (S)-2-(4-oxobenzo[d][1,2,3]triazin-3(4H)-yl)-N-(1-(4-(trifluoromethoxy)phenyl)ethyl)acetamide]
half-life [1]: ~11 days | half-life [2]: 120 to 240 min | posterior mean (SD) for the difference to placebo, BACS composite score ([3]; Day 14, 40 mg): −0.23 (2.95) | posterior mean (SD) for the difference to placebo, BACS composite score ([3]; Day 14, 160 mg): −0.84 (1.87) | posterior mean (SD) for the difference to placebo, BACS composite score ([3]; Day 14, overall): −0.61 (1.50) | BACS performance ([3]; phase 2): not seen to be affected | effect of treatment on average global CBF (mixed two-way ANOVA) ([4]; Day 1, 40 mg/160 mg vs placebo, F(1, 18)=5.978, p=0.025): significant effect of treatment | effects on cerebral blood flow compared to placebo ([4]; Day 1 and Day 14): widespread and robust reductions at Day 1 followed by increases at Day 14 | effect of treatment on average global CBF (mixed two-way ANOVA) ([4]; Day 14, 40 mg/160 mg vs placebo, F(1, 15)=3.558, p=0.079): no significant effect of treatment
